How the values were obtained:
[1] = tested on: L. mexicana promastigotes; assay: Promastigote viability (Alamar Blue/resazurin); format: cell-based; conditions: Leishmania mexicana; 48 h compound exposure; read-out: EC50 promastigote viability
Procedure: Next, we evaluated GZD824 ability to reduce the viability of L. mexicana promastigotes by monitoring the reduction of resazurin (Alamar Blue).[31]
(§1) L. mexicana (strain MNYC/BZ/62/M379) promastigotes were cultivated in medium 199 (M199) (Earle’s Salts - Gibco) supplemented with 10% (v/v) heat-inactivated fetal calf serum (HIFCS – Cultilab) and 1% Penicillin/Streptomycin solution (Sigma-Aldrich) at 26 °C. Phenotypic drug response assays in null mutant and point-mutation mutant lines were performed in HOMEM supplemented with 10% (v/v) heat-inactivated fetal calf serum (HIFCS – Gibco). THP-1 monocytes were differentiated in adherent macrophages with 50 ng of PMA for 72 h at 37 °C and 5% CO2 before infection with stationary phase promastigotes (ratio 10 promastigotes:1 macrophage) for 6 h, followed by washing to remove non-internalized Leishmania. Infected macrophages were incubated at 34 °C and 5% CO2 for 48 h in RPMI (Gibco) supplemented with 10% HIFCS and 1% Penicillin/Streptomycin solution.
For evaluation of drug effect on promastigote and uninfected macrophage viability, cells were cultivated in the presence of test compounds for 24 h and incubated with 10% AlamarBlue™ Cell Viability Reagent (ThermoFisher) for 24 h before measuring fluorescence at λex 540 nm/λem 590 nm. Untreated cells (1% DMSO) were set as 100 % viable cells. Intracellular amastigotes were treated with compounds for 48 h. Slides with paraformaldehyde-fixed and DAPI-stained cells were imaged on a Zeiss AxioImager microscope – at least 200 macrophages per drug concentration and DMSO control. Experiments were performed in duplicate. The total number of amastigotes was normalized by the number of macrophages counted. For EC50 determination, the data was fitted to the sigmoidal dose-response (variable slope) equation in GraphPad Prism (v.9.1.0).

LmxCLK1 = target: T1, LmxCLK1 (Leishmania mexicana, UniProt E9AMP2); assay: HTRF (TR-FRET) enzymatic inhibition assay; format: biochemical; conditions: IC50 enzymatic inhibition of LmxCLK1, purified LmxCLK1, 30-min pre-incubation, 66 µM ATP
T1 sequence (E9AMP2 1-422): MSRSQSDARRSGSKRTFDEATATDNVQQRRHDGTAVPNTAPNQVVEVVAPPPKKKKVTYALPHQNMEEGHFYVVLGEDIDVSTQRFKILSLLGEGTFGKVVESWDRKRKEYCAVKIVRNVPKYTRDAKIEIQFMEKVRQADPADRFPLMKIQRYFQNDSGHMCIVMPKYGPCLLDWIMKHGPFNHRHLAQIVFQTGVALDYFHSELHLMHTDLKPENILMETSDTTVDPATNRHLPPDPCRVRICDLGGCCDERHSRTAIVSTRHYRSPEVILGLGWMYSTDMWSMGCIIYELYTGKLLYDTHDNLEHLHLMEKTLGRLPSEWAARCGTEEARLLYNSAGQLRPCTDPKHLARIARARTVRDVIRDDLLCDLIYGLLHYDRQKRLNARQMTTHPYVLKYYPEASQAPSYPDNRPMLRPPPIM
Procedure: The enzymatic activity of full-length LmxCLK1 was monitored using a homogenous time-resolved fluorescence (HTRF)-based assay (HTRF KinEASE-STK S3 kit, Cisbio - catalog #62ST3PEC). For IC50 value determination, the data from two independent experiments performed in duplicate were fitted to the sigmoidal dose-response (variable slope) equation available in GraphPad Prism (v. 9.1.0). Detailed information for IC50 determination can be found in the Supplementary Information. […]
min at 4 °C. The supernatants were loaded onto an immobilized metal affinity chromatography (IMAC) […]
column (5 mL HisTrap FF Crude, GE Healthcare) and washed in Binding Buffer containing 30 mM imidazole.
Proteins were eluted in Binding Buffer with 300 mM imidazole. To remove the N-terminal 6xHis-tag […]
introduced during cloning (see above), proteins were incubated with TEV protease during dialysis […]
overnight at 4 °C into Gel Filtration Buffer (20 mM HEPES, 500 mM NaCl, 5% glycerol, 0.5 mM TCEP).
Recombinant proteins were further purified using reverse affinity chromatography on Ni-Sepharose […]
followed by gel filtration (Superdex 200 16/60, GE Healthcare), and concentrated using 10 kDa molecular […]
weight cut-off centrifugal concentrators (Millipore). LmxCLK1 (CQMED clone ID LmxCLK1-cb001) and […]
NLuc-LmxCLK1 (CQMED clone ID LmxCLK1-cb021) proteins were stored at -80 °C for in vitro biochemical […]
assays at 0.5 mg/mL and 0.7 mg/mL, respectively, measured by UV absorbance with a NanoDrop […]
spectrophotometer (Thermo Scientific), using the calculated molecular weight and estimated extinction […]
Purified proteins were further analyzed by LC-ESI-MS in a XEVO G2 Sx Q-ToF (Waters). Expected intact […]
masses for LmxCLK1 (CQMED clone ID LmxCLK1-cb001) and NLuc-LmxCLK1 (CQMED clone ID LmxCLK1- […]
cb021) were: 48,791.14 Da and 68,411.71 Da, respectively.
We monitored the activity of recombinantly produced full-length LmxCLK1 (CQMED clone ID LmxCLK1- […]
cb001) using a commercially-available homogenous time-resolved fluorescence (HTRF)-based assay (HTRF […]
KinEASE-STK S3 kit, Cisbio - catalog #62ST3PEC). Assay development included establishing reaction […]
parameters (optimal enzyme concentration, ATP concentration and reaction time).
(15-point, 3-fold serial dilution and a highest final assay concentration of 10 µM) prior to transfer (100 nL) […]
to a black, 384-well, round bottom, low-volume plate (Corning catalog #4514) containing a mixture of […]
LmxCLK1 and peptide substrate in kinase buffer using an automated liquid transferring system (CYBIO […]
FeliX®, Analytik Jena, Jena, Germany). […]
started by the addition of ATP and allowed to proceed for 75 min at 30 °C. Final concentrations for reaction […]
components were: 6 nM LmxCLK1, 66 µM ATP (10× KM,ATP), 1 µM peptide (STK Substrate 3-biotin, Cisbio).
All components were prepared in 1× Enzymatic Buffer (Cisbio) supplemented with 5 mM MgCl2, 1 mM […]
DTT, 0.01% Tween-20. The reaction was stopped by the addition of Detection Buffer containing EDTA, […]
Fluorescence signal was measured using a CLARIOstar microplate reader (BMG LABTECH) with excitation […]
at 330 nm, emission at 665 nm (acceptor) and 620 nm (donor), integration delay 60 μs and integration […]
time 400 μs. All reactions were done in duplicate and two independent experiments were performed.
Enzyme activity was expressed as the background-corrected HTRF ratio of the acceptor and donor […]
emission signals according to equation [1]:
(also on this page, place not known: imi dazole. Ni -Sepharose background -corrected (665/620)=3Acceptor!!"#$ −backgroundD.10,000 Downloaded from http://pubs.acs.org/aidcbc/article-supplement/3662943/pdf/id5c00610_si_001/ by guest on 07 August 2026) […]
where background is the background fluorescence obtained in the absence of enzyme (blank).
To determine IC50 values, the background-corrected HTRF ratio was plotted as a function of test

NLuc::LmxCLK1 [2] = target: T2, NLuc::LmxCLK1 (Leishmania mexicana, UniProt E9AMP2); assay: cell-based; format: cell-based
Method in brief: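 NanoBRET tracer displacement in live cells expressing NLuc-tagged CLK1, test compounds at 10 µM fixed, 1% DMSO final. Acceptor/donor emission (610/460 nm) ratio gives mBRET, converted to blank-corrected probe occupancy (%); probe KD from single-site saturation binding fits.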

NLuc::LmxCLK1 [3] = target: T2, NLuc::LmxCLK1; assay: In-cell BRET target engagement in intracellular amastigotes expressing NLuc::LmxCLK1; format: cell-based
Procedure: as §1
(§2) in vitro BRET used purified NLuc-LmxCLK1 in Kinase Buffer (50 mM HEPES, 1 mM EGTA, 10 mM MgCl^2, 2 mM DTT and 0.01% Tween-20) aliquoted into 96-well plates (Greiner #655904). In cell BRET assays used engineered L. mexicana (promastigotes or intramacrophage amastigotes) expressing NLuc-LmxCLK1 in cell media aliquoted into 96-well plates (Greiner, #655083). For tracer titration experiments, BRET probes were serially diluted from 100% DMSO stocks – first in 100% DMSO to 100x final assay concentration, and then in Tracer Dilution Buffer (TDB - 12.5 mM HEPES, pH 7.5; 31.25% PEG 400) to 20x the final assay concentration. Serially diluted probes (5 µL) were added to 85 µL of cells in culture media or 85 µL of purified protein. Final well volumes were adjusted to 100 µL with sterile Opti-MEM™ I Reduced Serum Medium (Thermo-Scientific) – for wells containing cells; or Kinase Buffer - for wells containing purified protein. For tracer displacement assays, samples were prepared as above, but final volume was brought to 100 µL by addition of vehicle or serially-diluted test compounds. Final DMSO concentration in these assays was 1%. Plates were incubated for 30 min at 25 °C (purified protein and promastigotes) or 34 °C (intramacrophage amastigotes), and 50 µL of Promega cocktail containing furimazine and NLuc extracellular inhibitor (catalog #N2161) were added to each well. Light emissions at 460+10 nm (BRET donor) and at 610+20 nm (BRET acceptor) were sequentially recorded (integration time = 0.5 s, gain = 3600) using a luminometer (BMG LABTECH Clariostar or Biotek Synergy HT). BRET values are reported in milli-BRET (mBRET) units (mBU), obtained by dividing the acceptor luminescence by the donor luminescence and multiplying the result by a factor of 1,000. BRET values were converted to blank-corrected probe occupancies (%) according to equation [1]: (1) Probeoccupancy(%)=X−Z/Y−Z×100 where X = mBRET value in the presence of the test compound and the probe, Y = mBRET value in the presence of probe only, and Z = mBRET value in the absence of probe and test compound.

NLuc::LmxCLK1 [4] = target: T2, NLuc::LmxCLK1; assay: In vitro BRET with purified NLuc::LmxCLK1; format: binding
Procedure: as §2
To determine apparent dissociation constants from saturation binding curves, mBRET values were plotted as a function of probe concentration, and probe affinity values (KD) were determined using the hyperbolic dose-response equation for binding to a single site available in GraphPad Prism (v. 9.1.0).

Question: Which results are given for `CN[C@@H]1C[C@H]2O[C@@](C)([C@@H]1OC)n1c3ccccc3c3c4c(c5c6ccccc6n2c5c31)C(=O)NC4` [Staurosporine]?
Answer: EC50 [1]: 900 nM; IC50 (LmxCLK1): 460 nM

Question: `Cc1ccc(C(=O)Nc2ccc(CN3CCN(CCCNC(=O)c4ccc(C(=O)O)c(-c5c6ccc(=O)cc-6oc6cc(O)ccc56)c4)CC3)c(C(F)(F)F)c2)cc1C#Cc1cnc2[nH]ncc2c1` [SV366] was tested. Which EC80 (NLuc::LmxCLK1 [2]; 0.5 h, read-out: EC80 tracer titration in promastigotes) did it give?
Answer: 1050 nM

Question: And the EC50 (NLuc::LmxCLK1 [2]; read-out: EC50 tracer titration in promastigotes, live promastigotes)?
Answer: 383 nM

Question: What about the EC80 (NLuc::LmxCLK1 [3]; 0.5 h, read-out: EC80 tracer titration in intracellular amastigotes) of the same molecule?
Answer: 200 nM

Question: And the EC50 (NLuc::LmxCLK1 [3]; read-out: EC50 tracer titration in intracellular amastigotes, infected macrophages)?
Answer: 72.6 nM

Question: What about the “Lower EC50 in intracellular amastigotes compared to promastigotes” value (NLuc::LmxCLK1 [3]; tracer titration) of the same molecule?
Answer: approximately 5 fold

Question: What about the EC80 (NLuc::LmxCLK1 [4]; 0.5 h, read-out: EC80 tracer titration, purified NLuc-LmxCLK1) of the same molecule?
Answer: 59.4 nM

Question: And the EC50 (NLuc::LmxCLK1 [4]; read-out: EC50 tracer titration, purified NLuc::LmxCLK1, BRET probe binding)?
Answer: 8.4 nM

Question: What about the Kd (NLuc::LmxCLK1 [4]; saturation binding to purified NLuc::LmxCLK1) of the same molecule?
Answer: 5.9 nM

Question: With `Cc1ccc(C(=O)Nc2ccc(CN3CCN(CCCNC(=O)CCC4=[N+]5C(=Cc6ccc(-c7ccc[nH]7)n6[B-]5(F)F)C=C4)CC3)c(C(F)(F)F)c2)cc1C#Cc1cnc2[nH]ncc2c1` [SV363] as the molecule, how does the EC50 (NLuc::LmxCLK1 [4]) read?
Answer: > 1000 nM

Source: article PMC7619385 (ACS infectious diseases, 2025)
